The record followed here is US20230073777A1, “CYCLIC-AMP RESPONSE ELEMENT BINDING PROTEIN (CBP) AND/OR ADENOVIRAL E1A BINDING PROTEIN OF 300 KDA (P300) DEGRADATION COMPOUNDS AND METHODS OF USE” (CULLGEN (SHANGHAI), INC., priority 2019, published 2023).

One test has as its target P300 (Homo sapiens, UniProt Q09472). Briefly: Immunoblotting of P300 protein levels in LNCaP or 22RV1 cells. The format is cell-based. The arrangement: LNCaP or 22RV1 cells that express CBP/P300 proteins were treated with GNE-781 or the bivalent compounds; endogenous in cells; host or cells: LNCaP (clone FGC) or 22RV1 cells. As to conditions: read-out: Degradation (10 nM). Put shortly:
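P300/CBP levels quantified by chemiluminescent immunoblot band densitometry, normalized against tubulin or vinculin loading controls. Lysates came from LNCaP or 22RV1 cells exposed to compounds or DMSO vehicle for indicated times.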

A further test deals with LNCaP cells. In words: LNCaP cell viability assay (CellTiter-Glo). The format is cell-based. The conditions noted are these: Homo sapiens, 72 h; LNCaP prostate cancer cell viability inhibition, 3 days, CellTiter-Glo (Table 3). The essentials: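 Three-day treatment of LNCaP cells (5000 per well) across a 12-point, 3-fold dilution series starting at 10 μM. ATP luminescence (CellTiter-Glo) relative to untreated controls gave dose-response curves fitted nonlinearly for IC50.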

[1] abbreviates: percentage of inhibition of p300 at 10 nM (Table 3).

Like-named read-outs stand apart in the source and are kept apart here.

Sequence of P300 (Q09472 whole entry): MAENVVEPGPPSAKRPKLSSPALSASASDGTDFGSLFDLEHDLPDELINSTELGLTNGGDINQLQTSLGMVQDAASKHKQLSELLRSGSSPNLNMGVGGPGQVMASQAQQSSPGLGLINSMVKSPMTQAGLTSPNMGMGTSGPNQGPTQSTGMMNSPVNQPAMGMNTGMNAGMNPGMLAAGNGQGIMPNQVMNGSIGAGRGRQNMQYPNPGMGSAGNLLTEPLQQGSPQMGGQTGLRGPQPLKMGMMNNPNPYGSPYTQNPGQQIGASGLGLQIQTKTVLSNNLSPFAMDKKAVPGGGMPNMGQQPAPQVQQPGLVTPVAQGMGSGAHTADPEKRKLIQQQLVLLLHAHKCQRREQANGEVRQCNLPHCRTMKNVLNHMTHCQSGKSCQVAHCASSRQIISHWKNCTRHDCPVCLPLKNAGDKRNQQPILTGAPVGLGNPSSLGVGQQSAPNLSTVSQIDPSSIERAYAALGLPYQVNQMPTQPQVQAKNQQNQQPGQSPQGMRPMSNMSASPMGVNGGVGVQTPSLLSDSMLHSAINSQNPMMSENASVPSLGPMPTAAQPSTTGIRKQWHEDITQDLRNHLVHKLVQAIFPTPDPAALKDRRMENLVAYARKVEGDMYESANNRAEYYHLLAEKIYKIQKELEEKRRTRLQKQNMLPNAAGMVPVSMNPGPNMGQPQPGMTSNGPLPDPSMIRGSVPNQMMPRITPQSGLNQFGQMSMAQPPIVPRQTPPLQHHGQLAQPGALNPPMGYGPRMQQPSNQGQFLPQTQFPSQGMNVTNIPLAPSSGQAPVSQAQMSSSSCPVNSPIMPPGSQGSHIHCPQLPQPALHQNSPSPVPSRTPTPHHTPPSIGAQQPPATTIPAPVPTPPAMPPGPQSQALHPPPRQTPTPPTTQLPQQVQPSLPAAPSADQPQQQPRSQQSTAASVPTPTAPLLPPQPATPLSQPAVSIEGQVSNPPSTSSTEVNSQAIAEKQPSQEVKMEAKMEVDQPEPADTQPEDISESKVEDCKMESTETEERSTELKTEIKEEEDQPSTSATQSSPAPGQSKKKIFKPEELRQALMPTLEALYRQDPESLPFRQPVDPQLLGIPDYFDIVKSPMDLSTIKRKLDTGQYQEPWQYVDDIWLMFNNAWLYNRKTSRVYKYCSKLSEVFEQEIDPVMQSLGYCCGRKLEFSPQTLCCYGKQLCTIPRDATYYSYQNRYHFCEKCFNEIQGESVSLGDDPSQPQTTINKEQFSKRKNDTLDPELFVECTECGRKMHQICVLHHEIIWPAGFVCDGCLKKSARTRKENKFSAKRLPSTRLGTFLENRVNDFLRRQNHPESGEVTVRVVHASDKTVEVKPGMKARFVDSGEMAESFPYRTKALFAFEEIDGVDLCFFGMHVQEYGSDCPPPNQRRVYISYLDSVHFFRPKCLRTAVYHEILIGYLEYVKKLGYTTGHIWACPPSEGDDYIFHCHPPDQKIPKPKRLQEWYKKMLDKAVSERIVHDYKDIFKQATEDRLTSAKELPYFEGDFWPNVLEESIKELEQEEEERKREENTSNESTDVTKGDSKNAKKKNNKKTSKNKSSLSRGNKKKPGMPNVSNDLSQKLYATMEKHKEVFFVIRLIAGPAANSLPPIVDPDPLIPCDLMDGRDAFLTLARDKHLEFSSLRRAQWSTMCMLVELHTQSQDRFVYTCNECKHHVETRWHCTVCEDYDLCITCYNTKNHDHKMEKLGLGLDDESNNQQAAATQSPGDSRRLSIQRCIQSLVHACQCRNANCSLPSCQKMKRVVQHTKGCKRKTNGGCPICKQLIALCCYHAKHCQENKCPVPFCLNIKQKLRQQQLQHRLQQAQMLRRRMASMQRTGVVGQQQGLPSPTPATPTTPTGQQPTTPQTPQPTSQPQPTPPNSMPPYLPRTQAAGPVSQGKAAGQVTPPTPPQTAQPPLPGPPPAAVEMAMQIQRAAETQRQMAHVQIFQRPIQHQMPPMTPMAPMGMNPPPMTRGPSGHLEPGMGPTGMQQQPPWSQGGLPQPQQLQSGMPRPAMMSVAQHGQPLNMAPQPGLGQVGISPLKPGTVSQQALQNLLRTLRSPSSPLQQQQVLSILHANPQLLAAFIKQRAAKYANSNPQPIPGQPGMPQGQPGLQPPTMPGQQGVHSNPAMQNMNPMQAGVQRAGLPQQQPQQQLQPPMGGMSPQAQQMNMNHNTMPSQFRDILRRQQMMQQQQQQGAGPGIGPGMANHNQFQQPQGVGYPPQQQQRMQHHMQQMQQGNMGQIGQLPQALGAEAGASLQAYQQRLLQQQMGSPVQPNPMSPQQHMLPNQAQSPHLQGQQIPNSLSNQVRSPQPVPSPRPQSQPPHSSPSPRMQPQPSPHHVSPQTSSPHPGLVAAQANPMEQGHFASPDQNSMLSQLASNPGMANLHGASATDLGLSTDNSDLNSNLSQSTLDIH

As for `CC(=O)N1CCc2c(c(N3CCCc4cc(-c5cnn(C)c5)c(C(F)F)cc43)nn2C2CCN(C(=O)CCCCCCCCNc3ccc4c(c3)n(C)c(=O)n4C3CCC(=O)NC3=O)CC2)C1` (centres unmarked) [P-162, 3-(5-((9-(4-(5-acetyl-3-(7-(difluoromethyl)-6-(1-methyl-1H-pyrazol-4-yl)-3,4-dihydroquinolin-1(2H)-yl)-4,5,6,7-tetrahydro-1H-pyrazolo[4,3-c]pyridin-1-yl)piperidin-1-yl)-9-oxononyl)amino)-3-methyl-2-oxo-2,3-dihydro-1H-benzo[d]imidazol-1-yl)piperidine-2,6-dione], at P300 (setting [1]), the inhibition at 0.01 µM is > 80%. The same molecule yielded an IC50 with LNCaP cells of 0.3 nM.

On to `CC(=O)N1CCc2c(c(N3CCCc4cc(-c5cnn(C)c5)c(C(F)F)cc43)nn2C2CCN(C(=O)CCCCCCCCn3c(=O)n(C4CCC(=O)NC4=O)c4ccccc43)CC2)C1` (centres unmarked) [P-163, 3-(3-(9-(4-(5-acetyl-3-(7-(difluoromethyl)-6-(1-methyl-1H-pyrazol-4-yl)-3,4-dihydroquinolin-1(2H)-yl)-4,5,6,7-tetrahydro-1H-pyrazolo[4,3-c]pyridin-1-yl)piperidin-1-yl)-9-oxononyl)-2-oxo-2,3-dihydro-1H-benzo[d]imidazol-1-yl)piperidine-2,6-dione], for which the inhibition at 0.01 µM on P300 was > 80%. Moreover, half-maximal inhibition in the test with LNCaP cells (IC50) was put at 0.9 nM.

Turning to `CC(=O)N1CCc2c(c(N3CCCc4cc(-c5cnn(C)c5)c(C(F)F)cc43)nn2C2CCN(C(=O)CCCCCCCCCn3c(=O)n(C4CCC(=O)NC4=O)c4ccccc43)CC2)C1` (centres unmarked) [P-164, 3-(3-(10-(4-(5-acetyl-3-(7-(difluoromethyl)-6-(1-methyl-1H-pyrazol-4-yl)-3,4-dihydroquinolin-1(2H)-yl)-4,5,6,7-tetrahydro-1H-pyrazolo[4,3-c]pyridin-1-yl)piperidin-1-yl)-10-oxodecyl)-2-oxo-2,3-dihydro-1H-benzo[d]imidazol-1-yl)piperidine-2,6-dione], the inhibition at 0.01 µM at P300 (setting [1]) is > 80%. The same molecule yielded an IC50 in the test with LNCaP cells of 1 nM.

For the molecule `CC(=O)N1CCc2c(c(N3CCCc4cc(-c5cnn(C)c5)c(C(F)F)cc43)nn2C2CCN(C(=O)CCCCCNc3cccc4nc(C)n(C5CCC(=O)NC5=O)c(=O)c34)CC2)C1` (centres unmarked) [P-165, 3-(5-((6-(4-(5-Acetyl-3-(7-(difluoromethyl)-6-(1-methyl-1H-pyrazol-4-yl)-3,4-dihydroquinolin-1(2H)-yl)-4,5,6,7-tetrahydro-1H-pyrazolo[4,3-c]pyridin-1-yl)piperidin-1-yl)-6-oxohexyl)amino)-2-methyl-4-oxoquinazolin-3(4H)-yl)piperidine-2,6-dione], the inhibition at 0.01 µM on P300 (setting [1]) fell in the range of 50 to 80%. The molecule further came in with an IC50 with LNCaP cells of 123 nM.

On to `CC(=O)N1CCc2c(c(N3CCCc4cc(-c5cnn(C)c5)c(C(F)F)cc43)nn2C2CCN(Cc3ccc(COc4cccc5c4CN(C4CCC(=O)NC4=O)C5=O)cc3)CC2)C1` (centres unmarked) [P-166, 3-(4-((4-((4-(5-acetyl-3-(7-(difluoromethyl)-6-(1-methyl-1H-pyrazol-4-yl)-3,4-dihydroquinolin-1(2H)-yl)-4,5,6,7-tetrahydro-1H-pyrazolo[4,3-c]pyridin-1-yl)piperidin-1-yl)methyl)benzyl)oxy)-1-oxoisoindolin-2-yl)piperidine-2,6-dione], for which the inhibition at 0.01 µM on P300 (setting [1]) is > 80%. This molecule also had an IC50 in the test with LNCaP cells of 0.3 nM.

Take `CC(=O)N1CCc2c(c(N3CCCc4cc(-c5cnn(C)c5)c(C(F)F)cc43)nn2C2CCN(CCN3CCC(COc4cccc5c4C(=O)N(C4CCC(=O)NC4=O)C5=O)CC3)CC2)C1` (centres unmarked) [P-167, 4-((1-(2-(4-(5-Acetyl-3-(7-(difluoromethyl)-6-(1-methyl-1H-pyrazol-4-yl)-3,4-dihydroquinolin-1(2H)-yl)-4,5,6,7-tetrahydro-1H-pyrazolo[4,3-c]pyridin-1-yl)piperidin-1-yl)ethyl)piperidin-4-yl)methoxy)-2-(2,6-dioxopiperidin-3-yl)isoindoline-1,3-dione]: the inhibition at 0.01 µM on P300 was < 20%. Moreover, half-maximal inhibition in the test on LNCaP cells (IC50) required 92 nM.

Take `CC(=O)N1CCc2c(c(N3CCCc4cc(-c5cnn(C)c5)c(C(F)F)cc43)nn2C2CCN(C(=O)CN3CCC(COc4cccc5c4C(=O)N(C4CCC(=O)NC4=O)C5=O)CC3)CC2)C1` (centres unmarked) [P-168, 4-((1-(2-(4-(5-Acetyl-3-(7-(difluoromethyl)-6-(1-methyl-1H-pyrazol-4-yl)-3,4-dihydroquinolin-1(2H)-yl)-4,5,6,7-tetrahydro-1H-pyrazolo[4,3-c]pyridin-1-yl)piperidin-1-yl)-2-oxoethyl)piperidin-4-yl)methoxy)-2-(2,6-dioxopiperidin-3-yl)isoindoline-1,3-dione]: on P300 (setting [1]), the inhibition at 0.01 µM is < 20%. Besides, in the test with LNCaP cells, half-maximal inhibition (IC50) required 156 nM.

Turning to `CC(=O)N1CCc2c(c(N3CCCc4cc(-c5cnn(C)c5)c(C(F)F)cc43)nn2C2CCN(C(=O)CN3CCN(CCc4cccc5c4C(=O)N(C4CCC(=O)NC4=O)C5=O)CC3)CC2)C1` (centres unmarked) [P-169, 4-(2-(4-(2-(4-(5-Acetyl-3-(7-(difluoromethyl)-6-(1-methyl-1H-pyrazol-4-yl)-3,4-dihydroquinolin-1(2H)-yl)-4,5,6,7-tetrahydro-1H-pyrazolo[4,3-c]pyridin-1-yl)piperidin-1-yl)-2-oxoethyl)piperazin-1-yl)ethyl)-2-(2,6-dioxopiperidin-3-yl)isoindoline-1,3-dione], the inhibition at 0.01 µM on P300 (setting [1]) was < 20%. The concentration for half-maximal inhibition (IC50) in the test on LNCaP cells is > 500 nM.

As for `CC(=O)N1CCc2c(c(N3CCCc4cc(-c5cnn(C)c5)c(C(F)F)cc43)nn2C2CCN(C(=O)CN3CC(CCNc4cccc5c4C(=O)N(C4CCC(=O)NC4=O)C5=O)C3)CC2)C1` (centres unmarked) [P-170, 4-((2-(1-(2-(4-(5-Acetyl-3-(7-(difluoromethyl)-6-(1-methyl-1H-pyrazol-4-yl)-3,4-dihydroquinolin-1(2H)-yl)-4,5,6,7-tetrahydro-1H-pyrazolo[4,3-c]pyridin-1-yl)piperidin-1-yl)-2-oxoethyl)azetidin-3-yl)ethyl)amino)-2-(2,6-dioxopiperidin-3-yl)isoindoline-1,3-dione], the inhibition at 0.01 µM on P300 (setting [1]) is 20 to 50%. In the test on LNCaP cells, this molecule came in with a concentration for half-maximal inhibition (IC50) of 32.6 nM.

For the molecule `CC(=O)N1CCc2c(c(N3CCCc4cc(-c5cnn(C)c5)c(C(F)F)cc43)nn2C2CCN(C(=O)CC#CCCNc3cccc4c3C(=O)N(C3CCC(=O)NC3=O)C4=O)CC2)C1` (centres unmarked) [P-171, 4-((6-(4-(5-Acetyl-3-(7-(difluoromethyl)-6-(1-methyl-1H-pyrazol-4-yl)-3,4-dihydroquinolin-1(2H)-yl)-4,5,6,7-tetrahydro-1H-pyrazolo[4,3-c]pyridin-1-yl)piperidin-1-yl)-6-oxohex-3-yn-1-yl)amino)-2-(2,6-dioxopiperidin-3-yl)isoindoline-1,3-dione], the inhibition at 0.01 µM at P300 (setting [1]) lay in the range of 20 to 50%. Besides, in the test on LNCaP cells, the 50% inhibitory concentration (IC50) was found to be 253 nM.

With `CC(=O)N1CCc2c(c(N3CCCc4cc(-c5cnn(C)c5)c(C(F)F)cc43)nn2C2CCN(C(=O)CN3CCOC(CCNc4cccc5c4C(=O)N(C4CCC(=O)NC4=O)C5=O)C3)CC2)C1` (centres unmarked) [P-172, 4-((2-(4-(2-(4-(5-Acetyl-3-(7-(difluoromethyl)-6-(1-methyl-1H-pyrazol-4-yl)-3,4-dihydroquinolin-1(2H)-yl)-4,5,6,7-tetrahydro-1H-pyrazolo[4,3-c]pyridin-1-yl)piperidin-1-yl)-2-oxoethyl)morpholin-2-yl)ethyl)amino)-2-(2,6-dioxopiperidin-3-yl)isoindoline-1,3-dione], at P300 (setting [1]), the inhibition at 0.01 µM was 20 to 50%. In the test with LNCaP cells, the IC50 stood at 56.9 nM.

On to `CC(=O)N1CCc2c(c(N3CCCc4cc(-c5cnn(C)c5)c(C(F)F)cc43)nn2C2CCN(CCc3ccc(COc4cccc5c4CN(C4CCC(=O)NC4=O)C5=O)cc3)CC2)C1` (centres unmarked) [P-173, 3-(4-((4-(2-(4-(5-acetyl-3-(7-(difluoromethyl)-6-(1-methyl-1H-pyrazol-4-yl)-3,4-dihydroquinolin-1(2H)-yl)-4,5,6,7-tetrahydro-1H-pyrazolo[4,3-c]pyridin-1-yl)piperidin-1-yl)ethyl)benzyl)oxy)-1-oxoisoindolin-2-yl)piperidine-2,6-dione], for which the inhibition at 0.01 µM at P300 (setting [1]) fell in the range of 20 to 50%. In the test with LNCaP cells, this molecule displayed an IC50 of 3.4 nM.

On to `CC(=O)N1CCc2c(c(N3CCCc4cc(-c5cnn(C)c5)c(C(F)F)cc43)nn2C2CCN(Cc3ccc(CCOc4cccc5c4CN(C4CCC(=O)NC4=O)C5=O)cc3)CC2)C1` (centres unmarked) [P-174, 3-(4-(4-((4-(5-acetyl-3-(7-(difluoromethyl)-6-(1-methyl-1H-pyrazol-4-yl)-3,4-dihydroquinolin-1(2H)-yl)-4,5,6,7-tetrahydro-1H-pyrazolo[4,3-c]pyridin-1-yl)piperidin-1-yl)methyl)phenethoxy)-1-oxoisoindolin-2-yl)piperidine-2,6-dione], for which the inhibition at 0.01 µM at P300 (setting [1]) was > 80%. Further, in the test with LNCaP cells, inhibition was half-maximal at 0.4 nM (IC50).
